Here are results for five compounds from patent publication US5087627A, “Agent for treatment of disorders of the cerebro-neural transmission system” (Santen Pharmaceutical Co., Ltd., priority 1989, dated 1992).

The target of one test is T1, 5-HT2 receptor (Oryctolagus cuniculus, UniProt G1SYA7).
T1 construct: The isolated arteries were helically cut into strips; from tissue; host or cells: thoracic aorta of Japanese white rabbit (helical strips)
The experiment in a line: antagonistic test against 5-HT2 using vessel (thoracic aorta) of rabbit, 5-HT-induced contraction. More on the design: species or system tissue, rabbit (Japanese white).

The test system of test [1] is CXM - induced amnesia (impairment of memory). More on the design: species or system mice. The following applies: mouse, in vivo.
For test [2], the system named is PCA - induced amnesia (impairment of memory). As to the kind of experiment: one-trial passive avoidance test in mice, PCA - induced amnesia model.
The conditions of test [3]: in words, prior art; cited from earlier work.

Molecules are shown by their SMILES. Structures can show the parent of a compound that is named as a salt. Where two headings read alike, the source gives them in different places.

T1 sequence (G1SYA7 1-469): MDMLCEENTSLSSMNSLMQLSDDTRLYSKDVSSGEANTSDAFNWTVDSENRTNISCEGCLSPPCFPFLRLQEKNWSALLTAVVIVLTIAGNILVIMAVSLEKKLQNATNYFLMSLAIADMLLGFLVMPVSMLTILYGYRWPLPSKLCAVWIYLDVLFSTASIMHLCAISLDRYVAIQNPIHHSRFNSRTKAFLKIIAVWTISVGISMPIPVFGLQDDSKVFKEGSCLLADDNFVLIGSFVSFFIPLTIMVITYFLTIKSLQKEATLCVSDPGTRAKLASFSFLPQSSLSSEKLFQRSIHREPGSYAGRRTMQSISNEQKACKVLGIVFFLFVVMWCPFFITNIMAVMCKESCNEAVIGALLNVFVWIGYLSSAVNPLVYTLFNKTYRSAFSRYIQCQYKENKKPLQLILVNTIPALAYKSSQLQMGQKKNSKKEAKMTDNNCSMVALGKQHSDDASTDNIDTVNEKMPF
Method for 5-HT2 receptor: Therefore, in this test, the efficacy of the Compound was examined using thoracic aorta of rabbit.
Japanese white rabbits were sacrificed by cervical fracture and exsanguinated. Thoracic aortas were exciesd rapidly. The isolated arteries were helically cut into strips, approximately 3 mm wide, and suspended in 20 ml organ bath chambers containing Krebs-Henseleit solution. Resting tensions of aortas were maintained in 1.5 g. The organ bath chambers were maintained at 37° C. and aerated continuously with 95% O2 -5% CO2.
After equilibration, 5-HT (10^-6 M) was added into each organ bath chamber. After the 5-HT-induced contraction was ascertained to be constant and reproducible, each test compound were added and 30 minutes after 5-HT was added again, and their effect on 5-HT induced contraction was examined.
The contraction was measured with various concentrations of the test compound. According to the difference between the contraction caused by pre-treatment with the test compound and by 5-HT alone, the concentration which can inhibit 50% of the contraction caused by 5-HT alone was calculated (IC50).

On 5-HT2 receptor, `COc1ccc(CCN2CCN(C(Cc3ccccc3)c3ccncc3)CC2)cc1OC` (racemic) [compound 8, (±)-1-[2-Phenyl-1-(4-pyridyl)ethyl]-4-[2-(3,4-dimethoxyphenyl)ethyl]piperazine dioxalate] came in with an IC50 of 7 µM. On the same count and under the same terms, the result for `c1ccc(CC(c2cccnc2)N2CCN(CCOc3ccc4c(c3)OCO4)CC2)cc1` (racemic) [compound 9, (±)-1-[(2-Phenyl)-1-(3-pyridyl)ethyl]-4-[2-(3,4-methylenedioxyphenoxy)ethyl]piperazine dioxalate] reads 4.8 µM. For the compound `c1ccc(CC(c2ccccc2)N2CCN(CCOc3ccc4c(c3)OCO4)CC2)cc1` (racemic) [compound No. 7, (±)-1-(1,2-Diphenyl)ethyl-4-[2-(3,4-methylenedioxyphenoxy)ethyl]piperazine dihydrochloride], the “step-down latency (median)” value in test [1] came to 123.9 s; in test [2] (mouse, in vivo) it was 155.1 s. In addition, on 5-HT2 receptor, the IC50 worked out at 2.7 µM. As to `Fc1ccc(CC(c2ccc(F)cc2)N2CCN(CCOc3ccc4c(c3)OCO4)CC2)cc1` (racemic) [compound No. 10, (±)-1-[1,2-Bis(4-fluorophenyl)]ethyl-4-[2-[(3,4-methylenedioxy)phenoxy]ethyl]piperazine dihydrochloride], the IC50 at 5-HT2 receptor (rabbit thoracic aorta strips, 5-HT 10^-6 M, 30 minutes pre-treatment, 37° C., read-out: IC50 (concentration which can inhibit 50% of the contraction caused by 5-HT alone)) was determined as 2.1 µM. Further, the “step-down latency (median)” value in test [2] (PCA 5 mg/kg i.p., test compound 1.25 mg/kg p.o., 24 h after training, cut off 300 sec) was determined as 206.3 s. As to `CN(C)C(Cc1ccccc1)c1ccccc1` (single isomer, unassigned; (-)) [lefetamine, (-)-N,N-dimethyl-1,2-diphenylethylamine], the analgesic effect entry in test [3] is “excellent analgesic effect”.
